Reference: publication PMC4175002, “The Design and Synthesis of Potent and Selective Inhibitors of Trypanosoma brucei Glycogen Synthase Kinase 3 for the Treatment of Human African Trypanosomiasis” (Journal of Medicinal Chemistry, 2014)

Legend:
PKCa = molecular target: T1, PKCa (Homo sapiens, UniProt P17252); experiment: Mammalian kinase profiling (DSTT panel); type: biochemical; settings: 10 μM; average percentage of remaining activity
T1 construct: purchased Division of Signal Transduction Therapy (DSTT), University of Dundee
Method: (§1) To assess the selectivity of the aminopyrazole inhibitors, remaining activity at 10 μM concentration was measured for compounds 4f, 4m, and 4y against a panel of 80 human PKs and for compound 9g against 124 human PKs. […] Compound 4m inhibited only two PKs, namely GSK3β and CDK2, at more than 80%.
(§2) Selected compounds were screened against a panel of mammalian kinases routinely run by the Division of Signal Transduction Therapy (DSTT) at the University of Dundee in duplicate at 10 μM.[32] Enzymes included in the panel and assay conditions are reported in the literature. All biochemical assays are run below the Km^app for the ATP for each enzyme, allowing comparison of inhibition across the panel.

EPH A2 = molecular target: T2, EPH A2 (Homo sapiens, UniProt P29317); experiment: Mammalian kinase profiling (DSTT panel); type: biochemical; settings: 10 μM; average percentage of remaining activity
T2 construct: purchased Division of Signal Transduction Therapy (DSTT), University of Dundee
Method: as §1, §2

Lck = molecular target: T3, Lck (Homo sapiens, UniProt P06239); experiment: Mammalian kinase profiling (DSTT panel); type: biochemical; settings: 10 μM; average percentage of remaining activity
T3 construct: purchased Division of Signal Transduction Therapy (DSTT), University of Dundee
Method: as §1, §2

P38a MAPK = molecular target: T4, P38a MAPK (Homo sapiens, UniProt Q16539); experiment: Mammalian kinase profiling (DSTT panel); type: biochemical; settings: 10 μM; average percentage of remaining activity
T4 construct: purchased Division of Signal Transduction Therapy (DSTT), University of Dundee
T4 sequence (Q16539 whole entry): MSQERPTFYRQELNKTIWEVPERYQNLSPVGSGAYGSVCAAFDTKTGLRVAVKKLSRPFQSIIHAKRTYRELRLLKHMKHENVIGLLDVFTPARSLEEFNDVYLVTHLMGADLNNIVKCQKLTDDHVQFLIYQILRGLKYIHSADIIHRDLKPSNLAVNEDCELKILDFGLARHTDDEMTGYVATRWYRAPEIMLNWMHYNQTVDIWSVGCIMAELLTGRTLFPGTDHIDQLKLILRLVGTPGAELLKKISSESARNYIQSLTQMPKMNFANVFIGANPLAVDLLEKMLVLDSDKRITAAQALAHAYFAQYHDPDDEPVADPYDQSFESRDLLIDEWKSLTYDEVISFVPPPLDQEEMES
Method: as §1, §2

IKKb = molecular target: T5, IKKb (Homo sapiens, UniProt O14920); experiment: Mammalian kinase profiling (DSTT panel); type: biochemical; settings: 10 μM; average percentage of remaining activity
T5 construct: purchased Division of Signal Transduction Therapy (DSTT), University of Dundee
Method: as §1, §2

Src = molecular target: T6, Src (Homo sapiens, UniProt P12931); experiment: Mammalian kinase profiling (DSTT panel); type: biochemical; settings: 10 μM; average percentage of remaining activity
T6 construct: purchased Division of Signal Transduction Therapy (DSTT), University of Dundee
Method: as §1, §2

RSK1 = molecular target: T7, RSK1 (Homo sapiens, UniProt Q15418); experiment: Mammalian kinase profiling (DSTT panel); type: biochemical; settings: 10 μM; average percentage of remaining activity
T7 construct: purchased Division of Signal Transduction Therapy (DSTT), University of Dundee
T7 sequence (Q15418 whole entry): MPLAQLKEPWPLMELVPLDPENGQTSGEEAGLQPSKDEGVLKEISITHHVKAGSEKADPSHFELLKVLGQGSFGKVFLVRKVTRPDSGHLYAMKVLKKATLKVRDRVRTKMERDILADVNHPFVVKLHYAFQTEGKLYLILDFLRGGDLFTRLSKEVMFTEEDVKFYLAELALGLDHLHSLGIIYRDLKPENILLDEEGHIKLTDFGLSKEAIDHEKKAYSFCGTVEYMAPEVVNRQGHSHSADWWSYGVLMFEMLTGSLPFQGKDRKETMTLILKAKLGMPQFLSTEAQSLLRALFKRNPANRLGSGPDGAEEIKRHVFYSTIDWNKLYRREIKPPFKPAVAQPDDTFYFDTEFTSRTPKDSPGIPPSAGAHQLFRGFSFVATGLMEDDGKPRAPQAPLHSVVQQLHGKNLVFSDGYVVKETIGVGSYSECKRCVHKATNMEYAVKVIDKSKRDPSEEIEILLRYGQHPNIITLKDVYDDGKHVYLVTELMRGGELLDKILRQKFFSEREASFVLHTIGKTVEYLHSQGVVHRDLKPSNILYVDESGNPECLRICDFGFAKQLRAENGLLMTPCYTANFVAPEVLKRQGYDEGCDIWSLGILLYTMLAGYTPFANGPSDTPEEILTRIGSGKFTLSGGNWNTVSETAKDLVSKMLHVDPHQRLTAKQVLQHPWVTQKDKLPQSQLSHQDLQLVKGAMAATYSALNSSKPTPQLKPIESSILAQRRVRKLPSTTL
Method: as §1, §2

ROCK2 = molecular target: T8, ROCK2 (Homo sapiens, UniProt O75116); experiment: Mammalian kinase profiling (DSTT panel); type: biochemical; settings: 10 μM; average percentage of remaining activity
T8 construct: purchased Division of Signal Transduction Therapy (DSTT), University of Dundee
T8 sequence (O75116 whole entry): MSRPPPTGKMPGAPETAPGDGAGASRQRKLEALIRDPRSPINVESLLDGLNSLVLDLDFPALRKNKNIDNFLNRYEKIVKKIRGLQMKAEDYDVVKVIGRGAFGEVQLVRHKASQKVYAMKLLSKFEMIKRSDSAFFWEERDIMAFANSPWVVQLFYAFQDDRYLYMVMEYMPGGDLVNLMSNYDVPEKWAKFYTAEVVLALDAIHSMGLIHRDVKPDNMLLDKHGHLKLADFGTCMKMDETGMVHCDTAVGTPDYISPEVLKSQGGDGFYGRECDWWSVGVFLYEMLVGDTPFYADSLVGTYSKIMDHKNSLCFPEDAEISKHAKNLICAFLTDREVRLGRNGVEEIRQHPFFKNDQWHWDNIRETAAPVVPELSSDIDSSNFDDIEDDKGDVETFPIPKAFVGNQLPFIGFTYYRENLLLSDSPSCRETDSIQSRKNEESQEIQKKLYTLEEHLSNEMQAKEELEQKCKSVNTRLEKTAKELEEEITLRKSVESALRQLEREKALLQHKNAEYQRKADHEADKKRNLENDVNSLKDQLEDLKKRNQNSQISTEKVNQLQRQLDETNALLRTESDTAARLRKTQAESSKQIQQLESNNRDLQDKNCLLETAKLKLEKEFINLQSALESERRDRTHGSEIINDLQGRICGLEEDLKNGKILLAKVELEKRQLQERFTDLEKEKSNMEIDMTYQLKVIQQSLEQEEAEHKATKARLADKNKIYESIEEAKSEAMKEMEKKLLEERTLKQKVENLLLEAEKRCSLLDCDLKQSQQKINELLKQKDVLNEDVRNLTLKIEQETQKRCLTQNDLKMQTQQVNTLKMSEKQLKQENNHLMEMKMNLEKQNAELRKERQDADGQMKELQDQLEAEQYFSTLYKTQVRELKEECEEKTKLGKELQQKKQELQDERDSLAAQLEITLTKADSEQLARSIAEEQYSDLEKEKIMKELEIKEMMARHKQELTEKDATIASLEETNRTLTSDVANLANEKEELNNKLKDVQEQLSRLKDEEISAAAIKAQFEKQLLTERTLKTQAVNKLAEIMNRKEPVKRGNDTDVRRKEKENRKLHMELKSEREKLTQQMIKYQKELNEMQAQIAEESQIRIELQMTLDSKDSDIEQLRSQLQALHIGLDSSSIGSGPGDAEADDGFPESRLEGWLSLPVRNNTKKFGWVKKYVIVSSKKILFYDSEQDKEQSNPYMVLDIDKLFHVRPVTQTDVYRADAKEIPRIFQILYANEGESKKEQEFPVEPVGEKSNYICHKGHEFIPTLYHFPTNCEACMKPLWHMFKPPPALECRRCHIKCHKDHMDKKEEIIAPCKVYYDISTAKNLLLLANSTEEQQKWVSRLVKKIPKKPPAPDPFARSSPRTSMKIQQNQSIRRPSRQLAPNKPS
Method: as §1, §2

IRR = molecular target: T9, IRR (Homo sapiens, UniProt P14616); experiment: Mammalian kinase profiling (DSTT panel); type: biochemical; settings: 10 μM; average percentage of remaining activity
T9 construct: purchased Division of Signal Transduction Therapy (DSTT), University of Dundee
T9 sequence (P14616 27-1297): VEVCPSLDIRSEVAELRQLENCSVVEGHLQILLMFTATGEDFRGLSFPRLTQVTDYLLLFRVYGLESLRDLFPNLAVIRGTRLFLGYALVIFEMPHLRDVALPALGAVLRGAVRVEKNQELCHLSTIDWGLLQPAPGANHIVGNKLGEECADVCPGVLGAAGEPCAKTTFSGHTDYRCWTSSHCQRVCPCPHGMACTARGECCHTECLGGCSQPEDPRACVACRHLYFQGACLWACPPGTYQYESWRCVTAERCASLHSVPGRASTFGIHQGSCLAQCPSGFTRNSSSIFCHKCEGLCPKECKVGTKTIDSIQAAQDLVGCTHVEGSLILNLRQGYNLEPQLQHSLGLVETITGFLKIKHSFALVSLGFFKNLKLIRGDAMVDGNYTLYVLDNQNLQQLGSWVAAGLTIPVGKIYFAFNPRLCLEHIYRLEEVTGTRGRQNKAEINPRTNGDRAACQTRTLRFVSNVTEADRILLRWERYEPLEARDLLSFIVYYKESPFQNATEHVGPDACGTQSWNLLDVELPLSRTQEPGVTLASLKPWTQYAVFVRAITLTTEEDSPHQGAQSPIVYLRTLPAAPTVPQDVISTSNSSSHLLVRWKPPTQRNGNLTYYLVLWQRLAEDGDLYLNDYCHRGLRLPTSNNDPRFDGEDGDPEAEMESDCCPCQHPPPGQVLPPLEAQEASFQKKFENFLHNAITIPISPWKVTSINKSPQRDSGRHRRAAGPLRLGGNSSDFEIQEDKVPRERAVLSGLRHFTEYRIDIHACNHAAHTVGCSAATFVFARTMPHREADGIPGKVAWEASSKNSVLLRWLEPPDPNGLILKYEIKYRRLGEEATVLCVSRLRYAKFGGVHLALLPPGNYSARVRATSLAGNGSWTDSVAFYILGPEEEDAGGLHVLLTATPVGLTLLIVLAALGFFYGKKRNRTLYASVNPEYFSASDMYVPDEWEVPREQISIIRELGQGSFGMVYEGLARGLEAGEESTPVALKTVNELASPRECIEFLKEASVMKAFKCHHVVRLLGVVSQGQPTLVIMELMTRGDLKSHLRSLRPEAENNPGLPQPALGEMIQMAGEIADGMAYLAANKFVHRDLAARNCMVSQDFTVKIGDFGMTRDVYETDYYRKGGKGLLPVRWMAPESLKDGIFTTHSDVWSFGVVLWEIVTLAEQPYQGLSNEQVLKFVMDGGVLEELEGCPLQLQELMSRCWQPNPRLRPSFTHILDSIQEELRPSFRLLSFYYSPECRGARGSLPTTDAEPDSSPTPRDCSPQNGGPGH
Method: as §1, §2

PAK4 = molecular target: T10, PAK4 (Homo sapiens, UniProt O96013); experiment: Mammalian kinase profiling (DSTT panel); type: biochemical; settings: 10 μM; average percentage of remaining activity
T10 construct: purchased Division of Signal Transduction Therapy (DSTT), University of Dundee
T10 sequence (O96013 whole entry): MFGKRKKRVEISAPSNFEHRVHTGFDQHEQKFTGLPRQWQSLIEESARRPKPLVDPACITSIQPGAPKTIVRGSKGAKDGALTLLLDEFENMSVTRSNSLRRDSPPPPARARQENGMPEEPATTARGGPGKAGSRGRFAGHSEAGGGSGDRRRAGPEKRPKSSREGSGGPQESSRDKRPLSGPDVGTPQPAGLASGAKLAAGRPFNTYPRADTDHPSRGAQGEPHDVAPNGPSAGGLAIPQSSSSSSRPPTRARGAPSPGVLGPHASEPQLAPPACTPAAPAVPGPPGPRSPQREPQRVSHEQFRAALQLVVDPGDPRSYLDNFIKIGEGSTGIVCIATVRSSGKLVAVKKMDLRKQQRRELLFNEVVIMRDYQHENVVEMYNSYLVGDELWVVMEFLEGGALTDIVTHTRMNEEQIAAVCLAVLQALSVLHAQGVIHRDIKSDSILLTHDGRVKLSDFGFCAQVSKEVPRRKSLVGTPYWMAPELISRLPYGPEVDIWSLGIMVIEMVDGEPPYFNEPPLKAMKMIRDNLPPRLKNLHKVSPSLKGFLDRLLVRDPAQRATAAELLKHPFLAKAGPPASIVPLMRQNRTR
Method: as §1, §2

IR-HIS = molecular target: T11, IR-HIS (Homo sapiens, UniProt P06213); experiment: Mammalian kinase profiling (DSTT panel); type: biochemical; settings: 10 μM; average percentage of remaining activity
T11 construct: purchased Division of Signal Transduction Therapy (DSTT), University of Dundee
Method: as §1, §2

MST4 = molecular target: T12, MST4 (Homo sapiens, UniProt Q9P289); experiment: Mammalian kinase profiling (DSTT panel); type: biochemical; settings: 10 μM; average percentage of remaining activity
T12 construct: purchased Division of Signal Transduction Therapy (DSTT), University of Dundee
Method: as §1, §2

MST2 = molecular target: T13, MST2 (Homo sapiens, UniProt Q13188); experiment: Mammalian kinase profiling (DSTT panel); type: biochemical; settings: 10 μM; average percentage of remaining activity
T13 construct: purchased Division of Signal Transduction Therapy (DSTT), University of Dundee
T13 sequence (Q13188 1-491): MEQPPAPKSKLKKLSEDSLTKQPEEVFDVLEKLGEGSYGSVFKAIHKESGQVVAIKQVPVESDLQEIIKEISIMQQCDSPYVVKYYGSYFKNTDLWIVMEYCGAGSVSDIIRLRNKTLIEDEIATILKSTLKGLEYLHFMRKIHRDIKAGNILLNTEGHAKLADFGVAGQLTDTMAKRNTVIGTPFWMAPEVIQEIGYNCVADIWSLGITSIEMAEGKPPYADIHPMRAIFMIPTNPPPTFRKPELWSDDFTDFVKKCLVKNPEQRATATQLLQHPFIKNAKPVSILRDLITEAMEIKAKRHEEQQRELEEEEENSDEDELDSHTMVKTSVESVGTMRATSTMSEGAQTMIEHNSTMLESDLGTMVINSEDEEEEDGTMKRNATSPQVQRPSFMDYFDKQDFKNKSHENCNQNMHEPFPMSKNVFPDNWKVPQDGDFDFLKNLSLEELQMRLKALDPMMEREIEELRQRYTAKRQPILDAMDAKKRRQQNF
Method: as §1, §2

PIM2 = molecular target: T14, PIM2 (Homo sapiens, UniProt Q9P1W9); experiment: Mammalian kinase profiling (DSTT panel); type: biochemical; settings: 10 μM; average percentage of remaining activity
T14 construct: purchased Division of Signal Transduction Therapy (DSTT), University of Dundee
T14 sequence (Q9P1W9 whole entry): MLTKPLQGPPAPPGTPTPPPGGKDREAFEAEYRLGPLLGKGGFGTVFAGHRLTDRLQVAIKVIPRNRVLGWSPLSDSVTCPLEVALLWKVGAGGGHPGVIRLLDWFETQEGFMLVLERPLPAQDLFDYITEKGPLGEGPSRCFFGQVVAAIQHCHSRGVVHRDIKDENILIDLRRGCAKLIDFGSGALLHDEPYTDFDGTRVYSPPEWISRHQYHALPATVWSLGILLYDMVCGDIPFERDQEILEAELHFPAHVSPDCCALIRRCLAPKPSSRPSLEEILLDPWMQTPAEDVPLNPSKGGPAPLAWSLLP
Method: as §1, §2

PKD1 = molecular target: T15, PKD1 (Homo sapiens, UniProt Q15139); experiment: Mammalian kinase profiling (DSTT panel); type: biochemical; settings: 10 μM; average percentage of remaining activity
T15 construct: purchased Division of Signal Transduction Therapy (DSTT), University of Dundee
Method: as §1, §2

CAMK1 = molecular target: T16, CAMK1 (Homo sapiens, UniProt Q14012); experiment: Mammalian kinase profiling (DSTT panel); type: biochemical; settings: 10 μM; average percentage of remaining activity
T16 construct: purchased Division of Signal Transduction Therapy (DSTT), University of Dundee
T16 sequence (Q14012 whole entry): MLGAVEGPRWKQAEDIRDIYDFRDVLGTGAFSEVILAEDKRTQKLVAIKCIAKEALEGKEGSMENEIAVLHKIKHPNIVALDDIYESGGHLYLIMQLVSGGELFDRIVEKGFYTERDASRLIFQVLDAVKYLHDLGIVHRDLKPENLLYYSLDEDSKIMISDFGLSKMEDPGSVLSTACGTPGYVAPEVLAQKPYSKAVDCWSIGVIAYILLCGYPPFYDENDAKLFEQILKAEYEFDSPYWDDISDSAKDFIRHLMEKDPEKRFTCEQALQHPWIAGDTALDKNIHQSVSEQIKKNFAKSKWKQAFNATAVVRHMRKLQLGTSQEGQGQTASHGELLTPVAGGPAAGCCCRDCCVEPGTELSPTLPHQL
Method: as §1, §2

IKK = experiment: Mammalian kinase profiling (DSTT panel); type: biochemical, human; settings: 10 μM; average percentage of remaining activity
Method: as §1, §2

TbGSK3 short = molecular target: T17, TbGSK3 short (Trypanosoma brucei brucei, UniProt Q388M1); experiment: Radiometric 96-well Flashplate potency assay, TbGSK3; type: biochemical
T17 sequence (Q388M1 1-352): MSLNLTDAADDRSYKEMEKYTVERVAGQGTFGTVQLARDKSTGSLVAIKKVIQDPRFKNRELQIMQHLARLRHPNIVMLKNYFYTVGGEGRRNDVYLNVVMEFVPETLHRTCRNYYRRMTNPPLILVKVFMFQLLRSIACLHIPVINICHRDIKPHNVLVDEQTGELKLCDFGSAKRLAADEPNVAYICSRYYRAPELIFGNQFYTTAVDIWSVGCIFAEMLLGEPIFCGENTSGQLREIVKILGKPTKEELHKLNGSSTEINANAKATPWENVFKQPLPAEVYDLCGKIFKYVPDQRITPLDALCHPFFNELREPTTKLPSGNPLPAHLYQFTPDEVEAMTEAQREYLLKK
Method: For compound potency determinations, a radiometric 96-well Flashplate assay (PerkinElmer) was adopted. Compounds were solubilized in DMSO at a top concentration of 3 mM and serially diluted to achieve 10-point titration of final assay concentrations from 30 μM to 0.3 nM with a final DMSO concentration of 1% (v/v). The reaction mixtures contained 1 μM biotinylated GSP2 substrate, 1 μM ATP, 3.7 KBq/well [γ-33P]-ATP and 2.5 nM TbGSK3 in the TbGSK3 kinase assay buffer. GSK3 inhibitors were screened for selectivity assessment also against HsGSK3β. For HsGSK3 assay, the reaction mixes contained 1 μM biotinylated GSP2 substrate, 2 μM ATP, 7.4 KBq/well [γ-33P]-ATP and 15 nM HsGSK3β in the TbGSK3 kinase assay buffer (25 mM Tris-HCl, pH 7.5, 10 mM MgCl2, 5 mM DTT, 0.02% CHAPS, 2 U/mL heparin). For HsCDK2/cyclin A assay, the reaction mixtures contained 1 mM CDK5 biotinylated peptide substrate (Biotin-C6-PKTPKKAKKL), 1 μM ATP, 7.4 KBq/well [γ-^33P]-ATP and 2 nM HsCDK2/cyclin A in the kinase assay buffer (50 mM Tris-HCl, pH 7.5, 10 mM MgCl2, 2 mM DTT, 100 mM NaCl, 0.2 mM EGTA, 0.02% (v/v) Brij35).
The statistical significance of the compound potency (IC50) was based on the performance of standard molecules which have been tested to a high replication. In the case of TbGSK3 short assay, the standard compound GW8510 was tested 93 times across 9 independent runs. […] The minimum significant ratio (MSR) of 0.4 was evaluated considering the following formula: [drawing 1] where SD is the standard deviation and N the number of replicate values routinely used for the assay (2 in our case).[31] This implies that a difference of >0.4 in pIC50 can be considered statistically significant for this assay.

SMILES | PKCa activity compared to the control (PKCa) [%] | EPH A2 activity compared to the control (EPH A2) [%] | Lck activity compared to the control (Lck) [%] | P38a MAPK activity compared to the control (P38a MAPK) [%] | IKKb activity compared to the control (IKKb) [%] | Src activity compared to the control (Src) [%] | RSK1 activity compared to the control (RSK1) [%] | ROCK2 activity compared to the control (ROCK2) [%] | IRR activity compared to the control (IRR) [%] | PAK4 activity compared to the control (PAK4) [%] | IR-HIS activity compared to the control (IR-HIS) [%] | MST4 activity compared to the control (MST4) [%] | MST2 activity compared to the control (MST2) [%] | PIM2 activity compared to the control (PIM2) [%] | PKD1 activity compared to the control (PKD1) [%] | CAMK1 activity compared to the control (CAMK1) [%] | IKK activity compared to the control (IKK) [%] | TbGSK3 potency relative to 4f (TbGSK3 short; more potent than the unsubstituted phenyl compound 4f) | improvement of TbGSK3 inhibition potency (TbGSK3 short; relative to saturated six-membered rings (4a, 4b) and benzyl groups (4c, 4d, 4e), on average) [fold]
CO[C@H]1CC[C@H](NC(=O)c2n[nH]cc2NC(=O)c2ccc(-c3ccccc3)o2)CC1 [Compound 4y, N-(4-Methoxycyclohexyl)-4-(5-phenylfuran-2-carboxamido)-1H-pyrazole-3-carboxamide] | 48 | 100 | 67 | 71 | 36 | 85 | 54 | 72 | 26 | 27 | 50 | 30 | 69 | 82 | 59 | 46 | 71 |  | 
COc1cccc(OC)c1C(=O)Nc1c[nH]nc1C(=O)NC1CCC(OC)CC1 (stereo not shown) [Compound 4m, 4-(2,6-Dimethoxybenzamido)-N-(4-methoxycyclohexyl)-1H-pyrazole-3-carboxamide] | 90 | 100 | 90 | 80 | 100 |  | 70 | 74 | 87 | 74 | 99 | 49 | 81 | 97 | 59 | 76 | 90 | approximately 10 fold | 
CO[C@H]1CC[C@H](NC(=O)c2n[nH]cc2NC(=O)c2ccccc2)CC1 [Compound 4f, 4-Benzamido-N-(4-methoxycyclohexyl)-1H-pyrazole-3-carboxamide] | 49 | 100 | 76 | 81 |  | 98 | 74 | 81 | 39 | 68 | 84 |  | 72 | 90 |  | 36 | 68 |  | ~20
